The values that follow come from ChEMBL document CHEMBL4334552, “Discovery of BMS-986260, a Potent, Selective, and Orally Bioavailable TGFβR1 Inhibitor as an Immuno-oncology Agent” (ACS Med Chem Lett, 2020).

Structures are written as SMILES. Values after ≈ are worked out from the molar mass of the structure shown. Bounds are passed on as bounds.

The AUC(0-t) is exposure summed from dosing to a finite time, without extrapolation to infinity. A low value points to low exposure. For orientation: IC50 means the concentration that gives 50% inhibition. As usually defined, the solubility is the concentration that dissolves in the medium under given conditions. Read a low solubility as little dissolved substance.

A short description of data set [1]: Metabolic stability of compound in mouse liver microsomes assessed as compound remaining. It is filed as ADME, Microsome. Background: Liver microsomes are a subcellular fraction often used to study metabolism.
Data set [2] is described as follows: Metabolic stability of compound in rat liver microsomes assessed as compound remaining after 10 mins. It is filed as ADME, Microsome. As to conditions: read-out: Stability.
Data set [3] can be described thus: Metabolic stability of compound in human liver microsomes assessed as compound remaining. It is filed as ADME, Microsome.
Data set [4] in a line: AUC (0 to 24 hrs) in mouse at 10 mg/kg, po. In kind it is ADME, organism-based. The arrangement: dose 10 mg/kg, time < 24 hr, route oral. As to conditions: in vivo.
A further data set addresses TGF-beta receptor type-2 (Homo sapiens, UniProt P37173). As to the kind of experiment: Inhibition of wild type His-tagged TGFBR2 kinase domain (unknown origin) incubated for 1 hr by HTRF analysis. Background: TR-FRET usually uses a lanthanide donor and a delayed reading to cut background.
A short description of data set [5]: Solubility of compound in crystalline form at pH 6.5. It is filed as physicochemical.
In data set [6] the target is TGF-beta receptor type-1 (Homo sapiens, UniProt P36897, T204D). As to the kind of experiment: Inhibition of His-tagged TGFBR1 kinase domain T204D mutant (unknown origin) incubated for 1 hr by HTRF analysis.
Data set [7] has as its target T1, TGF-beta receptor type-1 (Homo sapiens, UniProt P36897).
T1 sequence (P36897 whole entry): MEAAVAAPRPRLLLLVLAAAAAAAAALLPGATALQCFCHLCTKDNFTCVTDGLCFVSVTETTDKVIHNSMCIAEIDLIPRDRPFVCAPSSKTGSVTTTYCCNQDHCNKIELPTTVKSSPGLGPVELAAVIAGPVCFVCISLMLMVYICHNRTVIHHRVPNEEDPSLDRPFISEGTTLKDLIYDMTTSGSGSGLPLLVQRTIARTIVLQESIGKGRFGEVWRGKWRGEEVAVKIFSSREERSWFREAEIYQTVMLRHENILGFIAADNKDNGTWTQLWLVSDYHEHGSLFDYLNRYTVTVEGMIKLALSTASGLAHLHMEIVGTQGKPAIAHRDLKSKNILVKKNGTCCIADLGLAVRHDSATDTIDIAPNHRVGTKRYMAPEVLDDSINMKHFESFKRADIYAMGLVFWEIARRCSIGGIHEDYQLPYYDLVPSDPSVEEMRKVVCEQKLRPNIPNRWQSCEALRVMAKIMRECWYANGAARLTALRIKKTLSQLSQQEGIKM
As to the kind of experiment: Inhibition of TGFBR1 in TGFbeta-stimulated human NHLF cells assessed as reduction in SMAD2 nuclear translocation.

Data set [8] can be described thus: Aqueous solubility of the compound at pH 6.5. It is filed as physicochemical. Conditions: buffer.

TGF-beta receptor type-2, sequence (P37173 whole entry, the tested form may be a part): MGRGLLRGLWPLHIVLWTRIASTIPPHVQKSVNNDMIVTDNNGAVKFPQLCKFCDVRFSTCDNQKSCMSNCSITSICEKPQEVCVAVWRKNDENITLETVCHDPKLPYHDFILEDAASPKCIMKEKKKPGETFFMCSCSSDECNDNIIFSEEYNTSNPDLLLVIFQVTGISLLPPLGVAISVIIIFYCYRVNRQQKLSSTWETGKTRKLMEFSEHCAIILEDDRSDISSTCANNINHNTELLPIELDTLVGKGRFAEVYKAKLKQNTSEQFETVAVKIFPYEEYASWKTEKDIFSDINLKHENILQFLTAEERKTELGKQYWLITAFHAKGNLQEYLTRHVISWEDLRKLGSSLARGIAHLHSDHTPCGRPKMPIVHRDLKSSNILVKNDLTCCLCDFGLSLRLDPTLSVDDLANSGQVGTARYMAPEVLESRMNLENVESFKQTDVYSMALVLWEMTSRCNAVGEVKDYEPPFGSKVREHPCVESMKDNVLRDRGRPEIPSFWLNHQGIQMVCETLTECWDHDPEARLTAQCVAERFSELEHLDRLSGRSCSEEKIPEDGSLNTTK
TGF-beta receptor type-1 (Homo sapiens, UniProt P36897, T204D), sequence (P36897 34-503 T204D limits assumed): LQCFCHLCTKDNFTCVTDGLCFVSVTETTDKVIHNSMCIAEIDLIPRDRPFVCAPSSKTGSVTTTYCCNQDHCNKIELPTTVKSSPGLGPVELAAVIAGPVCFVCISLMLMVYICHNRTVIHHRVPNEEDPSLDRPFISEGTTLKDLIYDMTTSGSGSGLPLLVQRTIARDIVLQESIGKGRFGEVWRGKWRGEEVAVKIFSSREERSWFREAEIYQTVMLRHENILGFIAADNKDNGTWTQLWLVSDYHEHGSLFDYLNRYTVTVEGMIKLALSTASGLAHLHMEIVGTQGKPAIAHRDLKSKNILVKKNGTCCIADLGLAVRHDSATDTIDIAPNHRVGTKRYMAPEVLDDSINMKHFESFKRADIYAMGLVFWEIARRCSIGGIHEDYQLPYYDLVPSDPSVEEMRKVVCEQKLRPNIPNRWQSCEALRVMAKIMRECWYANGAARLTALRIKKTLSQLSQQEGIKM

As to `NC(=O)c1cnc2ccc(-c3c(-c4ccc(F)cc4)ncn3CC(F)F)nn12`, the Stability in data set [1] and in data set [3] was 100% throughout. Further, in data set [2], the remaining at 10 min stood at 100%. Moreover, the AUC(0-t) at 24 h in data set [4] amounted to 28 µM·h.

Compound `N#Cc1cnc2ccc(-c3c(-c4ccc(F)cc4)ncn3CCO)nn12` displayed a half-inhibitory concentration (IC50) against TGF-beta receptor type-2 greater than 15000 nM. Further, the Stability in data set [1] is given as 86%; in data set [3], 93%. This compound also displayed a solubility in [5] of 138 µg/mL (≈ 396 µM). Further, the remaining at 10 min in data set [2] was determined as 100%.

For `Cc1cccc(-c2ncn(CC(F)F)c2-c2ccc3nccn3c2)n1`, the Stability in data set [1] worked out at 54%; in [3], 78%. Further, the remaining at 10 min in data set [2] was found to be 31%. Besides, the concentration for half-maximal inhibition (IC50) was 1 to 10 nM against TGF-beta receptor type-1 [6] and 90 nM at TGF-beta receptor type-1 [7].

In turn, `N#Cc1cnc2ccc(-c3c(-c4ccc(F)cc4)ncn3CC(F)F)nn12` gave a concentration for half-maximal inhibition (IC50) on TGF-beta receptor type-2 greater than 15000 nM. Further, the Stability in data set [1] stood at 89%; in data set [3] it was 75%. In addition, the remaining at 10 min in data set [2] was determined as 96%. The solubility entry in data set [8] was “Insoluble”.

Consider `Cc1cccc(-c2ncn(CC(F)F)c2-c2ccc3ncc(C(N)=O)n3c2)n1`, for which the Stability is on record as 65% in [1] and 97% in data set [3]. Also, the remaining at 10 min in [2] worked out at 74%. For the same compound, the area under the curve AUC(0-t) at 24 h in data set [4] came to 2 µM·h.
